Test results from publication PMC3876027 (Journal of medicinal chemistry, 2013).
“Also recorded” adds a separate entry of the source.

Tests used:
[1] = system: human M1-M4; experiment: human mAChR selectivity, functional assay at hM1-M4; format: cell-based; settings: for IC50: read-out: hM1-M4 IC50, each of M1, M2, M3, M4
[2] = molecular target: T1, human M5 (Homo sapiens, UniProt P08912); experiment: functional calcium mobilization assay in CHO cells stably expressing human M5; format: cell-based
T1 sequence (P08912 1-532): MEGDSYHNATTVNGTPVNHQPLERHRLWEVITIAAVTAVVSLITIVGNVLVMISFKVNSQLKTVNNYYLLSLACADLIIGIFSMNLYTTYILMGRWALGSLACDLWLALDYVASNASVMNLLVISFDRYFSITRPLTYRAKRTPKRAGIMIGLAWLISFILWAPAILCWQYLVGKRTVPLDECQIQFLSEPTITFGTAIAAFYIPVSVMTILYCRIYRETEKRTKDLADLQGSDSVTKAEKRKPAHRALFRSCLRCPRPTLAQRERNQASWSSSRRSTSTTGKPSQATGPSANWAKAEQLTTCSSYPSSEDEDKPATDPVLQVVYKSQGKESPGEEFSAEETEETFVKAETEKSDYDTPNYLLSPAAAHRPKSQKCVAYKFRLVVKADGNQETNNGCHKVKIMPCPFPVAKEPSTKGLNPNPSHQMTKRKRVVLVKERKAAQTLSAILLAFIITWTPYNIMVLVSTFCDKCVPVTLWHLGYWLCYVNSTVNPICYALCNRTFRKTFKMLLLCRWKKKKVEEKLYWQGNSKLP

[3] = molecular target: T2, human M4 (Homo sapiens, UniProt P08173); experiment: HTS counter-screen in CHO cells expressing human M4; format: cell-based; settings: confirmed HTS hit sample
T2 sequence (P08173 1-479): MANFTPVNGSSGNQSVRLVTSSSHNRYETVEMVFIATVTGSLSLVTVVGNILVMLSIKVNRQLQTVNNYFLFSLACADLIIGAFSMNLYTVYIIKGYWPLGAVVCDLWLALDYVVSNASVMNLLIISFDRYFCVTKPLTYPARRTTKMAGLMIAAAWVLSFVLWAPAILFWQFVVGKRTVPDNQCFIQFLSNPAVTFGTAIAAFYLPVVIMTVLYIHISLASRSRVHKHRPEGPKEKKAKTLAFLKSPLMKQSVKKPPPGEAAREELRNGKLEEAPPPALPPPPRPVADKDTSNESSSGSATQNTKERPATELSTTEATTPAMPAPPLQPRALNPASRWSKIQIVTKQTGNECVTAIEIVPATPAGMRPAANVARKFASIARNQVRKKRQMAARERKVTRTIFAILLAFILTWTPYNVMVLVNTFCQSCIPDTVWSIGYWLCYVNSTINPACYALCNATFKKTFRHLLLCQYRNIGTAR

[4] = molecular target: T3, human M1 (Homo sapiens, UniProt P11229); experiment: HTS counter-screen in CHO cells expressing human M1; format: cell-based; settings: confirmed HTS hit sample
T3 sequence (P11229 1-460): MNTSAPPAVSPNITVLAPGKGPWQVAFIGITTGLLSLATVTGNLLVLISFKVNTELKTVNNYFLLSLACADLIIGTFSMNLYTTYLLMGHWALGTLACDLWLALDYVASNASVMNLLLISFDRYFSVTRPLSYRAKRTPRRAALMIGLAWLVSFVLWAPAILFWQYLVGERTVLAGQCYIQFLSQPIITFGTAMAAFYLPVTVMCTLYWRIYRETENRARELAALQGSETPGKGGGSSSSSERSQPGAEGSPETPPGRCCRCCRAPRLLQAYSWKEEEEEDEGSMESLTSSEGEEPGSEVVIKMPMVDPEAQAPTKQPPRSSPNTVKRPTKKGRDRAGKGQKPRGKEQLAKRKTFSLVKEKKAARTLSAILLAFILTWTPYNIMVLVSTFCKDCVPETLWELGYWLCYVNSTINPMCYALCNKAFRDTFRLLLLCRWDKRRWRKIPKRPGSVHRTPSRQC

[5] = Eurofins radioligand binding panel; settings: panel of 68 targets
[6] = IV pharmacokinetics in male cynomolgus monkey; format: in vivo; settings: plasma, 1 mg/kg
[7] = molecular target: T4, hM5 (Homo sapiens, UniProt P08912); experiment: [3H]-NMS competition binding in membranes prepared from hM5 cells; settings: N=3; compared to atropine
T4 sequence (P08912 1-532): T1 sequence (P08912 1-532)

[8] = hepatic microsomal intrinsic clearance, cynomolgus monkey; format: in vitro ADME
[9] = hepatic microsomal intrinsic clearance, rat; format: in vitro ADME; settings: Sprague-Dawley, liver microsomes
[10] = molecular target: CB1 (Homo sapiens, UniProt P21554); experiment: subsequent functional assay at CB1
[11] = system: rat M1-M4; experiment: rat mAChR selectivity, functional assay at rM1-M4; format: cell-based
[12] = molecular target: T4, hM5; experiment: [3H]-NMS dissociation kinetics with hM5 cell membranes; format: binding
[13] = hepatic microsomal intrinsic clearance, human; format: in vitro ADME; settings: liver microsomes

Chain of CB1 (P21554 whole entry, species assumed): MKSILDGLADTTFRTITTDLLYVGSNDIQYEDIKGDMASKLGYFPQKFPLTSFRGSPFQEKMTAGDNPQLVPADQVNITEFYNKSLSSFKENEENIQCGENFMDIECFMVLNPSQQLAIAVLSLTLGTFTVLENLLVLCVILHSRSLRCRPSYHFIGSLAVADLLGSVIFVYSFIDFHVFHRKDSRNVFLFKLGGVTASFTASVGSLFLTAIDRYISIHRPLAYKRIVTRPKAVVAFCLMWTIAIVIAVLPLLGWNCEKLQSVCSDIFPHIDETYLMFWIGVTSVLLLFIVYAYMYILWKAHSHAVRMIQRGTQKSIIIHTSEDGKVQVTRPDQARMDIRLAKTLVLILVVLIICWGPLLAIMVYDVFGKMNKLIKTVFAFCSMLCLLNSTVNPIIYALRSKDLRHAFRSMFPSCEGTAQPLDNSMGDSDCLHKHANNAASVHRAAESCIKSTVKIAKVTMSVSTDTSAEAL

O=C(c1ccc(F)c(F)c1)N1CCN2C(=O)c3ccccc3C12c1ccccc1 (centres unmarked) [4g]
IC50 [1]: > 30 µM

O=C(c1ccc(F)c(F)c1)N1CCN2C(=O)c3ccccc3C12c1ccc(Cl)cc1 (centres unmarked) [5g]
IC50 [1]: > 30 µM

O=C(c1ccc(F)cc1)N1CCN2C(=O)c3ccccc3C12c1ccccc1 (centres unmarked) [compound 1]
IC50 [1]: > 30 µM
IC50 [2]: > 10 µM
activity on M4 [3]: inactive
activity on M1 [4]: inactive

O=C(c1ccc(F)c(F)c1)N1CCN2C(=O)c3ccccc3[C@@]12c1ccc(Cl)cc1 [compound 8, (S)-9b-(4-chlorophenyl)-1-(3,4-difluorobenzoyl)-2,3-dihydro-1H-imidazo[2,1-a]isoindol-5(9bH)-one]
number of targets with significant binding (>50% inhibition @10 μM) [5]: 1
clearance [6]: 3 mL/min/kg
activity at human M1-M4 [1]: inactive
IC50 [1]: > 30 µM
competition with [3H]-NMS for binding to hM5 [7]: no competition; also recorded: does not bind at the M5 orthosteric site
Predicted CLhep ([8]; from CLint in well-stirred model, uncorrected for fraction unbound in plasma): 14 mL/min/kg
CLint scaled ([8]; liver microsomes): 20 mL/min/kg
CLint scaled at 1 µM [9]: 24 mL/min/kg
functional activity at CB1 [10]: no functional activity
activity at rat M1-M4 [11]: inactive
IC50 ([11]; read-out: rM1-M4 IC50, each of rat M1, M2, M3, M4): > 30 µM
[3H]-NMS dissociation t1/2 ([12]; atropine (+8), N=3): 1.15 h
effect on the dissociation rate of [3H]-NMS ([12]; hM5 cell membranes): decreased the dissociation rate
CLint scaled at 1 µM [13]: 2.6 mL/min/kg
